{"source": "patent US4988604A", "about": "“High contrast photographic element including an aryl sulfonamidophenyl hydrazide containing both thio and ethyleneoxy groups” (Eastman Kodak Company, priority 1990, dated 1991)", "key": {"[1]": {"experiment": "photographic performance of coatings containing nucleator: relative speed, dot quality, contrast (Example 1)", "settings": "for photographic speed (in words): comparison of tests of Table I; for Relative Speed: incorporated booster 64.6 mg/m^2, 1 minute at 35° C., pH 10.5; for DQ (contact screen exposed halftone dot quality): rated on a scale, 5 is excellent", "experimental": "Each coating used in obtaining the data provided in this example was prepared on a polyester support, using a monodispersed 0.24 μm AgBrI (2.5 mol % iodide) iridium-doped emulsion at 3.51 g/m^2 Ag, 2.54 g gel/m^2, and 1.08 g latex/m^2 where the latex is a copolymer of methyl acrylate, 2-acrylamido-2-methylpropane sulfonic acid, and 2-acetoacetoxyethylmethylacrylate. The silver halide emulsion was spectrally sensitized with 214 mg/Ag mol of anhydro-5,5'-dichloro-9-ethyl-3,3'-di-(3-sulfopropyl) oxacarbocyanine hydroxide, triethylene salt and the emulsion layer was overcoated with gelatin containing polymethylmethacrylate beads. The nucleating agent was added as a methanol solution to the emulsion melts at a level in millimoles (mM) per mole of silver as hereinafter indicated. An \"incorporated booster\" was added as a methanol solution in an amount of 64.6 milligrams per square meter of photographic element. The compound employed as the \"incorporated booster\" is represented by the formula: [drawing 8] where Pr represents n-propyl. Coatings were exposed for five seconds to a 3000° K. tungsten light source and processed for 1 minute at 35° C. in the developer solution.\nTo prepare the developer solution, a concentrate was prepared from the following ingredients:\nThe concentrate was diluted at a ratio of one part of concentrate to two parts of water to produce a working strength developing solution with a pH of 10.5.\n*DQ = contact screen exposed halftone dot quality rated on a scale where\nis poor and 5 is excellent."}, "[2]": {"experiment": "chemical spread: dot diameter growth rate of coatings containing nucleator (Example 2)", "settings": "for Dot Diameter Growth Rate: 10 to 60 seconds development", "source_text": "Coatings similar to those described in Example 1 were examined for differences in the degree of image spreading, so-called chemical spread, that is inherent to high contrast, nucleation processes. The films were exposed 5 seconds with 3000K tungsten light through a 90%, 52 line per centimeter, round dot tint mask to produce hard 10% dots upon development for about 10 seconds in the developer described in Example 1. With extended development beyond 10 seconds (typical development times in practice are 30 to 60 seconds), the nucleation process entails fogging of unexposed silver halide at the dot edges and, in turn, causes the dot to grow in size. The growth of the dot was measured by monitoring the change in density of the developing tint with time from 10 to 60 seconds and converting the measured density to the equivalent dot diameter using the well known relation between integrated halftone density and dot size."}}, "data": [{"smiles": "CCCCCCCCSCC(=O)Nc1c(C)ccc(S(=O)(=O)Nc2ccc(NNC=O)cc2)c1C", "note": "[Control C]", "values": [{"measurement": "photographic speed (in words)", "setting": "[1]", "value": "significantly lowers the photographic speed relative to the non-thio control of Test A"}, {"measurement": "Relative Speed", "setting": "[1]; nucleator 1.0 mM/Ag mole", "value": 68}, {"measurement": "DQ (contact screen exposed halftone dot quality)", "setting": "[1]; nucleator 1.0 mM/Ag mole", "value": 3.5}, {"measurement": "Relative Speed", "setting": "[1]; nucleator 2.0 mM/Ag mole", "value": 68}, {"measurement": "DQ (contact screen exposed halftone dot quality)", "setting": "[1]; nucleator 2.0 mM/Ag mole", "value": 3.5}]}, {"smiles": "CC(C)c1ccc(C(C)C)c(S(=O)(=O)Nc2ccc(NNC=O)cc2)c1", "note": "[Control A]", "values": [{"measurement": "Relative Speed", "setting": "[1]; nucleator 1.0 mM/Ag mole", "value": 87}, {"measurement": "DQ (contact screen exposed halftone dot quality)", "setting": "[1]; nucleator 1.0 mM/Ag mole", "value": 3.5}, {"measurement": "Relative Speed", "setting": "[1]; nucleator 2.0 mM/Ag mole", "value": 100}, {"measurement": "DQ (contact screen exposed halftone dot quality)", "setting": "[1]; nucleator 2.0 mM/Ag mole", "value": 4}, {"measurement": "Dot Diameter Growth Rate", "setting": "[2]; nucleator 2.0 mM/Ag mole", "value": 0.60, "unit": "micrometers/sec"}]}, {"smiles": "CCCCCCCCOCCOCCOCCOCCSCC(=O)Nc1c(C)ccc(S(=O)(=O)Nc2ccc(NNC=O)cc2)c1C", "note": "[Compound I-6]", "values": [{"measurement": "screen-exposed halftone dot quality (in words)", "setting": "[1]; Example 1", "value": "significant improvement in the screen-exposed halftone dot quality"}, {"measurement": "photographic speed (in words)", "setting": "[1]", "value": "the same speed was achieved in Test 1 even though the molar concentration of nucleator was one quarter of that used in Control Test B"}, {"measurement": "Relative Speed", "setting": "[1]; nucleator 0.5 mM/Ag mole", "value": 100}, {"measurement": "DQ (contact screen exposed halftone dot quality)", "setting": "[1]; nucleator 0.5 mM/Ag mole", "value": 4.5}, {"measurement": "Relative Speed", "setting": "[1]; nucleator 0.75 mM/Ag mole", "value": 107}, {"measurement": "DQ (contact screen exposed halftone dot quality)", "setting": "[1]; nucleator 0.75 mM/Ag mole", "value": 4.5}, {"measurement": "dot diameter growth rate or chemical spread (in words)", "setting": "[2]; Test 4 (one quarter the concentration) compared with Control Test A^1", "value": "much less"}, {"measurement": "Dot Diameter Growth Rate", "setting": "[2]; nucleator 0.50 mM/Ag mole", "value": 0.30, "unit": "micrometers/sec"}, {"measurement": "Dot Diameter Growth Rate", "setting": "[2]; nucleator 1.0 mM/Ag mole", "value": 0.41, "unit": "micrometers/sec"}]}]}
